# Source: US20240025913A1, “TERTIARY CARBOXAMIDE COMPOUNDS” (Vivace Therapeutics, Inc., priority 2020, published 2024)
# pIC50: −log10 of the molar value.
# System: 8×TBD luciferase reporter in HEK293T cells
# Test: YAP Reporter Assay (firefly luciferase)
# Type: cell-based
# Settings: Homo sapiens, HEK-293T; HEK293T cells stably transfected with 8×TBD luciferase reporter and pRLTK; 24-hr incubation; starting from 3 μM, 1:3 dilution, 10 points
# Method: HEK293T cells stably transfected with 8×TBD luciferase reporter and pRLTK in 384-well plates were treated with the test compounds, starting from 3 μM (final concentration in assay plate), 1:3 dilution, and 10 points in quadruplicates. Post 24-hr incubation with compounds at 37° C. and 5% CO2, cells were lysed and 8×TBD-driven firefly luciferase and control TK-driven renilla luciferase activities were measured using Promega Dual-Luciferase Reporter Assay System.
# Reagents: The reagents used for this study are: DMEM: Invitrogen #11960077, Dual-Glo Luciferase Assay System: Promega-E2980, Puromycin Dihydrochloride: Invitrogen-A1113803, 384-well plate: PerkinElmer-6007480, L-GLUTAMINE: Invitrogen-25030164, Hygromycin B: Invitrogen-10687010, and Penicillin-Streptomycin: Merk-TMS-AB2-C
# Media: The media used for this assay were: Culture Medium: DMEM+1 ug/mL puromycin+200 ug/mL hygromycin (with 10% FBS+1 mM L-glutamine); and Assay Medium: DMEM (with 10% FBS+1 mM L-glutamine+1×P/S).
# Cell Plating: The appropriate media was warmed at 37° C. by water bath: Culture Medium, Assay Medium, 1*D-PBS, 0.05% trypsin-EDTA. The cells were trypsinized after removing all media, then washed with 1*sterile D-PBS and then with 2 ml 0.05% trypsin-EDTA. The cells were then incubated at RT for one minute. Then 10 ml/75 cm2 flask Assay Medium was added to each flask. Using a 10 ml pipette, the cells were then gently resuspended in the media, until the clumps completely disappeared. The cells were then transferred into 50 ml centrifuge tubes and were centrifuged at 800 rpm for 5 mins. The medium was removed and the cells were resuspended with Assay Medium. An aliquot of cells was used to count the cell density (cells/ml). The cell suspension was then diluted with Assay Medium to a concentration of 6×10^4 cells/ml. 50 ul cells suspension was then plated to 384-well plate (PerkinElmer-6007480), 3×10^3 cells/well and the cells were incubated in an incubator at 37° C., 5% CO2.
# Compound Treatment: In the afternoon (incubation of the plate with 3-4 hrs), the test compounds were added by Echo, starting from 3 uM (final concentration in the assay plate), 1:3 dilution, 10 points, quadruplicates. The plate was placed at 37° C., 5% CO2 incubator for 24 hrs.
# Detection: The Dual-Glo Luciferase Reagent was prepared by transferring the contents of one bottle of Dual-Glo Luciferase Buffer to one bottle of Dual-Glo Luciferase Substrate to create the Dual-G Luciferase Reagent. Mixing was performed by inversion until the substrate was thoroughly dissolved. After mixing, the reagent was aliquoted into 15 ml tubes. In the afternoon (24 hrs post compound treatment), the DMEM+ medium in the 384 well plates were aspirated by Microplate Washer.
# Measuring firefly luciferase activity: 20 ul Dual-Glo Luciferase Reagent was added to the 384-well plates. The plates were protected from light to prevent interference with the assay. The plates were shaken for […] followed centrifuging plates at 1000 rpm for 30 seconds. After waiting at least 10 minutes, the firefly luminescence was measured by Envision.
# Measuring renilla luciferase activity: 20 ul Stop-Glo Reagent was added to the 384-well plates. The plates were shaken for […] and then centrifuged at 1000 rpm for 30 seconds. After waiting at least 10 minutes, the renilla luminescence was measured by Envision.
# Compound IC50 and maximum inhibition on the firefly luciferase and renilla luciferase activities were reported separately.
row,Compound,pIC50
1,"O=C(c1ccc2c(Oc3ccc(C(F)(F)F)cc3)cccc2c1)N1CC(NCC(F)F)C1 [Compound 32, (3-((2,2-Difluoroethyl)amino)azetidin-1-yl)(5-(4-(trifluoromethyl)phenoxy)naphthalen-2-yl)methanone]",6.00 to 7.00
2,"CCNCC1CN(C(=O)c2ccc3c(Oc4ccc(C(F)(F)F)cc4)cccc3c2)C1 [Compound 33, (3-((Ethylamino)methyl)azetidin-1-yl)(5-(4-(trifluoromethyl)phenoxy)naphthalen-2-yl)methanone]",6.00 to 7.00
3,"CC(C)NCC1CN(C(=O)c2ccc3c(Oc4ccc(C(F)(F)F)cc4)cccc3c2)C1 [Compound 34, (3-((Isopropylamino)methyl)azetidin-1-yl)(5-(4-(trifluoromethyl)phenoxy)naphthalen-2-yl)methanone]",6.00 to 7.00
4,"COCCNCC1CN(C(=O)c2ccc3c(Oc4ccc(C(F)(F)F)cc4)cccc3c2)C1 [Compound 35, (3-(((2-Methoxyethyl)amino)methyl)azetidin-1-yl)(5-(4-(trifluoromethyl)phenoxy)naphthalen-2-yl)methanone]",6.00 to 7.00
5,"O=C(c1ccc2c(Oc3ccc(C(F)(F)F)cc3)cccc2c1)N1CC(CNCCF)C1 [Compound 36, (3-(((2-Fluoroethyl)amino)methyl)azetidin-1-yl)(5-(4-(trifluoromethyl)phenoxy)naphthalen-2-yl)methanone]",6.00 to 7.00
6,"O=C(c1ccc2c(Oc3ccc(C(F)(F)F)cc3)cccc2c1)N1CC(CNCCO)C1 [Compound 37, (3-(((2-Hydroxyethyl)amino)methyl)azetidin-1-yl)(5-(4-(trifluoromethyl)phenoxy)naphthalen-2-yl)methanone]",≥ 7.00
7,"O=C(c1ccc2c(Oc3ccc(C(F)(F)F)cc3)cccc2c1)N1CC(CNCC(F)F)C1 [Compound 38, (3-(((2,2-Fifluoroethyl)amino)methyl)azetidin-1-yl)(5-(4-(trifluoromethyl)phenoxy)naphthalen-2-yl)methanone]",≥ 7.00
8,"O=C(c1ccc2c(Oc3ccc(C(F)(F)F)cc3)cccc2c1)N1CC(Nc2ccccn2)C1 [Compound 39, (3-(Pyridin-2-ylamino)azetidin-1-yl)(5-(4-(trifluoromethyl)phenoxy)naphthalen-2-yl)methanone]",6.00 to 7.00
9,"O=C(c1ccc2c(Oc3ccc(C(F)(F)F)cc3)cccc2c1)N1CC(CNc2ccccn2)C1 [Compound 40, (3-((Pyridin-2-ylamino)methyl)azetidin-1-yl)(5-(4-(trifluoromethyl)phenoxy)naphthalen-2-yl)methanone]",≥ 7.00
10,"O=C(c1ccc2c(Oc3ccc(C(F)(F)F)cc3)cccc2c1)N1CC2(C1)CN(c1ccccn1)C2 [Compound 41, (6-(Pyridin-2-yl)-2,6-diazaspiro[3.3]heptan-2-yl)(5-(4-(trifluoromethyl)phenoxy)naphthalen-2-yl)methanone]",5.52 to 6.00
11,"CN(C)C(=O)c1ccc2c(Oc3ccc(C(F)(F)F)cc3)cccc2c1 [Compound 42, N,N-dimethyl-5-(4-(trifluoromethyl)phenoxy)naphthalene-2-carboxamide]",6.00 to 7.00
12,"CN(C#N)C(=O)c1ccc2c(Oc3ccc(C(F)(F)F)cc3)cccc2c1 [Compound 43, N-cyano-N-methyl-5-(4-(trifluoromethyl)phenoxy)-2-naphthamide]",≥ 7.00
